Like-named read-outs stand apart in the source and are kept apart here.
Key:
in vivo = conditions: mouse, iv, mice, i.v. in dimethylsulfoxide, after seven days, Litchfield and Wilcoxon
Protocol: Intravenous Toxicity in Mice
Male CD1 mice from Charles River (Italy), weighing 25 g were used. Compounds were administered intravenously (i.v.), dissolved in dimethylsulfoxide, and the volume of administration was 0.01 ml per 10 g of body weight. The LD50 after seven days, was calculated according to the method of Litchfield and Wilcoxon (Experimental Therapeutics 96, 99 (1949)).

taenia coli = assay: Antagonistic activity to calcium in the taenia coli of guinea pigs (CaCl2-induced contractions, in vitro); type: cell-based, Hartley albino guinea pigs; conditions: for IC50: Cavia porcellus, 10 min, read-out: Calcium antagonistic activity in vitro ED50; for Inhibition of contractions due to CaCl2 after washing of the tissue: taenia coli, repeated washing
Protocol: Antagonistic Activity to Calcium in the Taenia Coli of Guinea Pigs
Hartley albino guinea pigs of average weight 450 g were used. The calcium antagonistic activity was determined stimulating the taenia coli, previously depolarized, with a single submaximal concentration of CaCl2 (10^-3 M), at intervals of 20 minutes (according to the method Naunyn Schmied. Arch. Pharmacol. 318, 235 (1982)). The products were left in contact with the preparation for 10 minutes. The ED50 were calculated from the percentage of maximum inhibition.

[1] = system: Spontaneous Hypertensive Rats (SHR); assay: Hypotensive activity in spontaneous hypertensive rats (SHR); type: in vivo, Male SHR (Okamoto) rats; conditions: for ED (25%): Rattus norvegicus, po, p.o. in 0.4% carboxymethyl cellulose, systolic arterial pressure, read-out: Hypotensive activity in SHR ED^SABP -25%; for Hypotensive activity compared with Nifedipine / Duration of hypotensive activity (still present after) / Hypotensive activity relative to Nifedipine: p.o.; for Hypotensive activity compared with Nifedipine: versus Nifedipine; for Hypotensive activity relative to Nifedipine: multiple of Nifedipine activity
Protocol: Hypotensive Activity in Spontaneous Hypertensive Rats (SHR)
Male SHR (Okamoto), of 70-100 days of age were used. The systolic arterial pressure (SABP) was determined by applying to the tail of the animal a pressure transducer with a sleeve connected to a BP-Recorder (W-W Electronic of Basel). The animals were previously warmed to 39° C. for a period of 15-20 minutes in a ventilated chamber.
The rats were previously trained to the registration for 1-2 days prior to the start of the experiment which consisted of a basic registration, the pharmacological treatment and then of subsequent registrations one hour and three hours after the treatment.
All the products were administered orally (p.o.), suspended in 0.4% carboxymethyl cellulose (Methocel); the volume of vehicle was 2 ml per kg.
The compounds of formula (I) were tested at three dose levels and the value of ED-25% was determined.

[2] = guinea pig taenia coli, depolarized, CaCl2 10^-3 M, 10 min contact, from maximum inhibition

Compound | LD50 at 168 h (in vivo) [mg/kg] | IC50 (taenia coli; [2]) [nM] | ED (25%) [1] [mg/kg] | IC50 (taenia coli) [nM] | Hypotensive activity compared with Nifedipine [1] | Duration of hypotensive activity (still present after) [1] [h] | Hypotensive activity relative to Nifedipine [1] | Inhibition of contractions due to CaCl2 after washing of the tissue (taenia coli)
COCCOC(=O)C1=C(C)NC(C)=C(C(=O)OCCN2CCN(c3ccccc3)CC2)C1c1cccc([N+](=O)[O-])c1 (stereo not drawn) [0290C, 2-(4-Phenyl)piperazinoethyl-2,6-dimethyl-4-(3-nitrophenyl)-5-(2-methoxy)ethoxycarbonyl-1,4-dihydropyridine-3-carboxylate] | 7.5 | 3 | 16.7 | – | – | – | – | –
COC(=O)C1=C(C)NC(C)=C(C(=O)OCCN2CCN(c3ccc(Cl)c(Cl)c3)CC2)C1c1cccc([N+](=O)[O-])c1 (stereo not drawn) [0285C] | 39 | 10.5 | 10.2 | – | – | – | – | –
COC(=O)C1=C(C)NC(C)=C(C(=O)OCCN(C)Cc2ccccc2)C1c1cccc([N+](=O)[O-])c1 (stereo not drawn) [Nicardipine, reference compound] | – | 2.3 | 8.6 | – | – | – | – | –
COC(=O)C1=C(C)NC(C)=C(C(=O)OCCN2CCN(c3ccc(C(F)(F)F)cc3)CC2)C1c1cccc([N+](=O)[O-])c1 (stereo not drawn) [0297C, 2-[4-(4-Trifluoromethylphenyl)]piperazinoethyl-2,6-dimethyl-4-(3-nitrophenyl)-5-methoxycarbonyl-1,4-dihydropyridine-3-carboxylate] | 73 | 15 | 4.4 | – | – | – | – | –
CCOC(=O)C1=C(C)NC(C)=C(C(=O)OC)C1c1cccc([N+](=O)[O-])c1 (stereo not drawn) [Nitrendipine, reference compound] | – | 1.9 | – | – | – | – | – | –
COCCOC(=O)C1=C(C)NC(C)=C(C(=O)OCCN2CCN(c3ccc(F)cc3)CC2)C1c1cccc([N+](=O)[O-])c1 (stereo not drawn) [0283C] | 7.8 | 2.6 | 8.3 | – | – | – | – | –
COC(=O)C1=C(C)NC(C)=C(C(=O)OCCN2CCN(c3ccccc3)CC2)C1c1cccc([N+](=O)[O-])c1 (stereo not drawn) [0219A, 2-(4-Phenyl)piperazino-ethyl 2,6-dimethyl-4-(3-nitrophenyl)-5-methoxycarbonyl-1,4-dihydropyridine-3-carboxylate] | 8.6 | 2.4 | 8.7 | – | – | – | – | –
COC(=O)C1=C(C)NC(C)=C(C(=O)OCCN2CCN(c3ccc([N+](=O)[O-])c(C(F)(F)F)c3)CC2)C1c1cccc([N+](=O)[O-])c1 (stereo not drawn) [0296C, 2-[4-(3-Trifluoromethyl-4-nitrophenyl)]piperazinoethyl-2,6-dimethyl-4-(3-nitrophenyl)-5-methoxycarbonyl-1,4-dihydropyridine-3-carboxylate] | 55 | – | 87 | 19 | – | – | – | –
COC(=O)C1=C(C)NC(C)=C(C(=O)OCCN2CCN(c3cccc(Cl)c3)CC2)C1c1cccc([N+](=O)[O-])c1 (stereo not drawn) [0255B] | 25.5 | 3.5 | 6.3 | – | superior activity | – | – | –
COCCOC(=O)C1=C(C)NC(C)=C(C(=O)OCCN2CCN(c3ccc(Cl)cc3)CC2)C1c1cccc([N+](=O)[O-])c1 (stereo not drawn) [0293C, 2-[4-(4-Chlorophenyl)]piperazinoethyl-2,6-dimethyl-4-(3-nitrophenyl)-5-(2-methoxy)ethoxycarbonyl-1,4-dihydropyridine-3-carboxylate] | 16 | 4.1 | 10.5 | – | – | – | – | –
COC(=O)C1=C(C)NC(C)=C(C(=O)OCCN2CCN(c3cccc(C(F)(F)F)c3)CC2)C1c1cccc([N+](=O)[O-])c1 (stereo not drawn) [0249B] | 35.3 | 22 | 6.6 | – | superior activity | ≥ 30 | about twice the activity of Nifedipine | –
COC(=O)C1=C(C)NC(C)=C(C(=O)OCCN2CCN(c3ccccc3OC)CC2)C1c1cccc([N+](=O)[O-])c1 (stereo not drawn) [0242A, 2-[4-(2-Methoxyphenyl)]-piperazino-ethyl 2,6-dimethyl-4-(3-nitrophenyl)-5-methoxycarbonyl-1,4-dihydropyridine-3-carboxylate] | 2.9 | 3.4 | 13.8 | – | – | – | – | –
CCOC(=O)C1=C(C)NC(C)=C(C(=O)OCCN2CCN(c3ccc(Cl)cc3)CC2)C1c1cccc([N+](=O)[O-])c1 (stereo not drawn) [0294C, 2-[4-(4-Chlorophenyl)]piperazinoethyl-2,6-dimethyl-4-(3-nitrophenyl)-5-ethoxycarbonyl-1,4-dihydropyridine-3-carboxylate] | 19 | 5.1 | 4.2 | – | – | – | – | –
COC(=O)C1=C(C)NC(C)=C(C(=O)OCCN2CCN(c3ccc([N+](=O)[O-])cc3)CC2)C1c1cccc([N+](=O)[O-])c1 (stereo not drawn) [0295C, 2-[4-(4-Nitrophenyl)]piperazinoethyl-2,6-dimethyl-4-(3-nitrophenyl)-5-methoxycarbonyl-1,4-dihydropyridine-3-carboxylate] | 38 | – | > 20 | 11 | – | – | – | –
COC(=O)C1=C(C)NC(C)=C(C(=O)OCCN2CCN(c3ccc(OC)cc3)CC2)C1c1cccc([N+](=O)[O-])c1 (stereo not drawn) [0266B] | 22.7 | 3.6 | 10.7 | – | – | – | – | –
COC(=O)C1=C(C)NC(C)=C(C(=O)OCCN2CCN(c3ccccc3Cl)CC2)C1c1cccc([N+](=O)[O-])c1 (stereo not drawn) [0248B] | 24.7 | 3 | 13.8 | – | superior activity | – | – | –
CC1=C(C(=O)OCCN2CCN(c3ccc(F)cc3)CC2)C(c2cccc([N+](=O)[O-])c2)C(C(=O)OCC(C)C)=C(C)N1 (stereo not drawn) [0282C] | 27.5 | 4.9 | 3.9 | – | – | – | – | –
CCOC(=O)C1=C(C)NC(C)=C(C(=O)OCCN2CCN(c3ccccc3)CC2)C1c1cccc([N+](=O)[O-])c1 (stereo not drawn) [0291C] | 25 | 3.9 | 6.6 | – | – | – | – | –
COC(=O)C1=C(C)NC(C)=C(C(=O)OCCN2CCN(c3ncccn3)CC2)C1c1cccc([N+](=O)[O-])c1 (stereo not drawn) [0241A] | 34.6 | 4.6 | 72 | – | – | – | – | readily reversible
COC(=O)C1=C(C)NC(C)=C(C(=O)OCCN2CCN(c3ccccc3C)CC2)C1c1cccc([N+](=O)[O-])c1 (stereo not drawn) [0243A, 2-[4-(2-Tolyl)]piperazino-ethyl 2,6-dimethyl-4-(3-nitrophenyl)-5-methoxycarbonyl-1,4-dihydropyridine-3-carboxylate] | 14.7 | 1.9 | 6.6 | – | – | – | – | –
CC1=C(C(=O)OCCN2CCN(c3ccc(Cl)cc3)CC2)C(c2cccc([N+](=O)[O-])c2)C(C(=O)OCC(C)C)=C(C)N1 (stereo not drawn) [0292C, 2-[4-(4-Chlorophenyl)]piperazinoethyl-2,6-dimethyl-4-(3-nitrophenyl)-5-isobutoxycarbonyl-1,4-dihydropyridine-3-carboxylate] | 35 | 94 | 11.7 | – | – | – | – | –
COC(=O)C1=C(C)NC(C)=C(C(=O)OCCN2CCN(c3ccccn3)CC2)C1c1cccc([N+](=O)[O-])c1 (stereo not drawn) [0251B] | 12.6 | 4.6 | 34 | – | – | – | – | –
COC(=O)C1=C(C)NC(C)=C(C(=O)OCCN2CCN(c3ccc(F)cc3)CC2)C1c1cccc([N+](=O)[O-])c1 (stereo not drawn) [0250B] | 17.7 | 2.5 | 7.5 | – | superior activity | ≥ 30 | about twice the activity of Nifedipine | –
COC(=O)C1=C(C)NC(C)=C(C(=O)OCCN2CCN(c3ccc(Cl)cc3)CC2)C1c1cccc([N+](=O)[O-])c1 (stereo not drawn) [0264B] | 32.1 | 6.4 | 6.3 | – | superior activity | ≥ 30 | about twice the activity of Nifedipine | –
COC(=O)C1=C(C)NC(C)=C(C(=O)OCCN2CCN(c3nccs3)CC2)C1c1cccc([N+](=O)[O-])c1 (stereo not drawn) [0240A, 2-[4-(2-Thiazolyl)]piperazino-ethyl 2,6-dimethyl-4-(3-nitrophenyl)-5-methoxycarbonyl-1,4-dihydropyridine-3-carboxylate] | 7.1 | 4.2 | 31 | – | – | – | – | –
COC(=O)C1=C(C)NC(C)=C(C(=O)OCCN2CCN(c3cccc(OC)c3)CC2)C1c1cccc([N+](=O)[O-])c1 (stereo not drawn) [0298C, 2-[4-(3-Methoxyphenyl)]piperazinoethyl-2,6-dimethyl-4-(3-nitrophenyl)-5-methoxycarbonyl-1,4-dihydropyridine-3-carboxylate] | 38 | 7.5 | 32 | – | – | – | – | –
COC(=O)C1=C(C)NC(C)=C(C(=O)OC)C1c1ccccc1[N+](=O)[O-] [Nifedipine, reference compound] | – | – | 25 | 2.6 | – | – | – | readily reversible

Reference: patent publication US4894460A (Pierrel S.p.A., priority 1982, dated 1990)
